Results as given in paper PMC12446476 (Nature Communications, 2025).
Values after ≈ are worked out from the molar mass of the structure shown. Where two headings read alike, the source gives them in different places.

System: non-gonococcal Neisseria
Experiment: MIC determination for non-gonococcal Neisseria, agar dilution
Format: cell-based, Neisseria species
Conditions: read-out: Minimum inhibitory concentration
From the text: The 2024 WHO N. gonorrhoeae reference strains were used for quality control. Only whole MIC doubling dilutions are reported. Clinical breakpoints or the epidemiological cutoff (ECOFF, to indicate azithromycin resistance) from EUCAST (v14.0, https://www.eucast.org/clinical_breakpoints) were used to classify isolates as antimicrobial susceptible or resistant. […] Two times the standard inoculum defined by CLSI was used to establish consistent growth in untreated control samples for some strains. In vitro time-kill assays were performed according to CLSI guidelines[65] using Columbia Broth (BD Difco) supplemented with 1% IsoVitaleX Enrichment (BD). Viable bacterial counts were generated by plating 10-fold serially diluted samples on GC agar plates containing 1% IsoVitaleX Enrichment (BD).

For `Cc1c(CN(C)C(=O)/C=C/c2cnc3c(c2)N[C@H](C)[C@H](O)C(=O)N3)oc2ccccc12` [Debio 1453], the MIC (Neisseria animalis 1, Consensus) was 0.25 µg/mL (≈ 0.595 µM), the MIC (Neisseria animalis 1, Replicate 1) was 0.25 µg/mL (≈ 0.595 µM) and the MIC (Neisseria animalis 1, Replicate 2) was 0.25 µg/mL (≈ 0.595 µM). The MIC (Neisseria animalis 1, Replicate 3) was 0.25 µg/mL (≈ 0.595 µM), the MIC (Neisseria cinerea 1, Consensus) was 0.032 µg/mL (≈ 0.0761 µM) and the MIC (Neisseria cinerea 1, Replicate 1) was 0.032 µg/mL (≈ 0.0761 µM). It also gave an MIC (Neisseria cinerea 1, Replicate 2) of 0.032 µg/mL (≈ 0.0761 µM), an MIC (Neisseria cinerea 1, Replicate 3) of 0.032 µg/mL (≈ 0.0761 µM) and an MIC (Neisseria cinerea 2, Consensus) of 0.25 µg/mL (≈ 0.595 µM). For the same compound, the MIC (Neisseria cinerea 2, Replicate 1) was 0.25 µg/mL (≈ 0.595 µM), the MIC (Neisseria cinerea 2, Replicate 2) was 0.25 µg/mL (≈ 0.595 µM) and the MIC (Neisseria cinerea 2, Replicate 3) was 0.25 µg/mL (≈ 0.595 µM). For the same compound, the MIC (Neisseria cinerea 3, Consensus) was 0.008 µg/mL (≈ 0.019 µM), the MIC (Neisseria cinerea 3, Replicate 1) was 0.008 µg/mL (≈ 0.019 µM) and the MIC (Neisseria cinerea 3, Replicate 2) was 0.016 µg/mL (≈ 0.0381 µM). The MIC (Neisseria cinerea 3, Replicate 3) was 0.008 µg/mL (≈ 0.019 µM), the MIC (Neisseria cinerea 6, Consensus) was 0.016 µg/mL (≈ 0.0381 µM) and the MIC (Neisseria cinerea 6, Replicate 1) was 0.032 µg/mL (≈ 0.0761 µM). The MIC (Neisseria cinerea 6, Replicate 2) was 0.016 µg/mL (≈ 0.0381 µM), the MIC (Neisseria cinerea 6, Replicate 3) was 0.016 µg/mL (≈ 0.0381 µM) and the MIC (Neisseria cinerea 7, Consensus) was 0.5 µg/mL (≈ 1.19 µM). For the same compound, the MIC (Neisseria cinerea 7, Replicate 1) was 0.5 µg/mL (≈ 1.19 µM), the MIC (Neisseria cinerea 7, Replicate 2) was 0.5 µg/mL (≈ 1.19 µM) and the MIC (Neisseria cinerea 7, Replicate 3) was 0.5 µg/mL (≈ 1.19 µM). The MIC (Neisseria cinerea 8, Replicate 1) was 0.25 µg/mL (≈ 0.595 µM), the MIC (Neisseria cinerea 9, Consensus) was 0.5 µg/mL (≈ 1.19 µM) and the MIC (Neisseria cinerea 9, Replicate 1) was 0.5 µg/mL (≈ 1.19 µM). The MIC (Neisseria cinerea 9, Replicate 2) was 0.5 µg/mL (≈ 1.19 µM), the MIC (Neisseria cinerea 9, Replicate 3) was 0.5 µg/mL (≈ 1.19 µM) and the MIC (Neisseria elongata 2, Consensus) was 2 µg/mL (≈ 4.76 µM). The MIC (Neisseria elongata 2, Replicate 1) was 2 µg/mL (≈ 4.76 µM), the MIC (Neisseria elongata 2, Replicate 2) was 2 µg/mL (≈ 4.76 µM) and the MIC (Neisseria elongata 2, Replicate 3) was 2 µg/mL (≈ 4.76 µM). The MIC (Neisseria elongata 3, Consensus) was 1 µg/mL (≈ 2.38 µM), the MIC (Neisseria elongata 3, Replicate 1) was 1 µg/mL (≈ 2.38 µM) and the MIC (Neisseria elongata 3, Replicate 2) was 1 µg/mL (≈ 2.38 µM). The MIC (Neisseria elongata 3, Replicate 3) was 1 µg/mL (≈ 2.38 µM), the MIC (Neisseria flava 1, Replicate 2) was 0.064 µg/mL (≈ 0.152 µM) and the MIC (Neisseria flavescens 1, Consensus) was 0.016 µg/mL (≈ 0.0381 µM). It also gave an MIC (Neisseria flavescens 1, Replicate 1) of 0.032 µg/mL (≈ 0.0761 µM), an MIC (Neisseria flavescens 1, Replicate 2) of 0.016 µg/mL (≈ 0.0381 µM) and an MIC (Neisseria flavescens 1, Replicate 3) of 0.016 µg/mL (≈ 0.0381 µM). For the same compound, the MIC (Neisseria flavescens 2, Replicate 2) was 0.25 µg/mL (≈ 0.595 µM), the MIC (Neisseria flavescens 3, Consensus) was 0.25 µg/mL (≈ 0.595 µM) and the MIC (Neisseria flavescens 3, Replicate 1) was 0.25 µg/mL (≈ 0.595 µM). It also gave an MIC (Neisseria flavescens 3, Replicate 2) of 0.25 µg/mL (≈ 0.595 µM), an MIC (Neisseria flavescens 3, Replicate 3) of 0.25 µg/mL (≈ 0.595 µM) and an MIC (Neisseria flavescens 4, Consensus) of 0.5 µg/mL (≈ 1.19 µM). For the same compound, the MIC (Neisseria flavescens 4, Replicate 1) was 0.25 µg/mL (≈ 0.595 µM), the MIC (Neisseria flavescens 4, Replicate 2) was 0.5 µg/mL (≈ 1.19 µM) and the MIC (Neisseria flavescens 4, Replicate 3) was 0.5 µg/mL (≈ 1.19 µM). It also gave an MIC (Neisseria flavescens 5, Consensus) of 0.5 µg/mL (≈ 1.19 µM), an MIC (Neisseria flavescens 5, Replicate 1) of 0.25 µg/mL (≈ 0.595 µM) and an MIC (Neisseria flavescens 5, Replicate 2) of 1 µg/mL (≈ 2.38 µM). It also gave an MIC (Neisseria flavescens 5, Replicate 3) of 0.5 µg/mL (≈ 1.19 µM), an MIC (Neisseria flavescens 6, Consensus) of 0.064 µg/mL (≈ 0.152 µM) and an MIC (Neisseria flavescens 6, Replicate 1) of 0.064 µg/mL (≈ 0.152 µM). The MIC (Neisseria flavescens 6, Replicate 2) was 0.064 µg/mL (≈ 0.152 µM), the MIC (Neisseria flavescens 6, Replicate 3) was 0.064 µg/mL (≈ 0.152 µM) and the MIC (Neisseria flavescens 7, Consensus) was 0.5 µg/mL (≈ 1.19 µM). It also gave an MIC (Neisseria flavescens 7, Replicate 1) of 0.5 µg/mL (≈ 1.19 µM), an MIC (Neisseria flavescens 7, Replicate 2) of 0.5 µg/mL (≈ 1.19 µM) and an MIC (Neisseria flavescens 7, Replicate 3) of 1 µg/mL (≈ 2.38 µM). For the same compound, the MIC (Neisseria flavescens 8, Replicate 1) was 0.064 µg/mL (≈ 0.152 µM), the MIC (Neisseria flavescens 9, Consensus) was 1 µg/mL (≈ 2.38 µM) and the MIC (Neisseria flavescens 9, Replicate 1) was 1 µg/mL (≈ 2.38 µM). It also gave an MIC (Neisseria flavescens 9, Replicate 2) of 1 µg/mL (≈ 2.38 µM), an MIC (Neisseria flavescens 9, Replicate 3) of 1 µg/mL (≈ 2.38 µM) and an MIC (Neisseria flavescens 10, Replicate 2) of 0.25 µg/mL (≈ 0.595 µM). It also gave an MIC (Neisseria flavescens 11, Consensus) of 0.5 µg/mL (≈ 1.19 µM), an MIC (Neisseria flavescens 11, Replicate 1) of 0.5 µg/mL (≈ 1.19 µM) and an MIC (Neisseria flavescens 11, Replicate 2) of 1 µg/mL (≈ 2.38 µM). It also gave an MIC (Neisseria flavescens 11, Replicate 3) of 0.5 µg/mL (≈ 1.19 µM), an MIC (Neisseria flavescens 12, Consensus) of 0.064 µg/mL (≈ 0.152 µM) and an MIC (Neisseria flavescens 12, Replicate 1) of 0.064 µg/mL (≈ 0.152 µM). It also gave an MIC (Neisseria flavescens 12, Replicate 2) of 0.064 µg/mL (≈ 0.152 µM), an MIC (Neisseria flavescens 13, Consensus) of 1 µg/mL (≈ 2.38 µM) and an MIC (Neisseria flavescens 13, Replicate 1) of 1 µg/mL (≈ 2.38 µM). The MIC (Neisseria flavescens 13, Replicate 2) was 1 µg/mL (≈ 2.38 µM), the MIC (Neisseria flavescens 13, Replicate 3) was 1 µg/mL (≈ 2.38 µM) and the MIC (Neisseria flavescens 14, Consensus) was 1 µg/mL (≈ 2.38 µM). For the same compound, the MIC (Neisseria flavescens 14, Replicate 1) was 1 µg/mL (≈ 2.38 µM), the MIC (Neisseria flavescens 14, Replicate 2) was 1 µg/mL (≈ 2.38 µM) and the MIC (Neisseria flavescens 14, Replicate 3) was 1 µg/mL (≈ 2.38 µM). For the same compound, the MIC (Neisseria flavescens 15, Consensus) was 1 µg/mL (≈ 2.38 µM), the MIC (Neisseria flavescens 15, Replicate 1) was 1 µg/mL (≈ 2.38 µM) and the MIC (Neisseria flavescens 15, Replicate 2) was 1 µg/mL (≈ 2.38 µM). For the same compound, the MIC (Neisseria flavescens 15, Replicate 3) was 1 µg/mL (≈ 2.38 µM), the MIC (Neisseria flavescens 16, Consensus) was 0.25 µg/mL (≈ 0.595 µM) and the MIC (Neisseria flavescens 16, Replicate 1) was 0.25 µg/mL (≈ 0.595 µM). It also gave an MIC (Neisseria flavescens 16, Replicate 2) of 0.25 µg/mL (≈ 0.595 µM), an MIC (Neisseria flavescens 16, Replicate 3) of 0.25 µg/mL (≈ 0.595 µM) and an MIC (Neisseria flavescens 17, Consensus) of 1 µg/mL (≈ 2.38 µM). For the same compound, the MIC (Neisseria flavescens 17, Replicate 1) was 1 µg/mL (≈ 2.38 µM), the MIC (Neisseria flavescens 17, Replicate 2) was 0.5 µg/mL (≈ 1.19 µM) and the MIC (Neisseria flavescens 17, Replicate 3) was 1 µg/mL (≈ 2.38 µM). For the same compound, the MIC (Neisseria gonorrhoeae subspecies kochii 1, Consensus) was 0.016 µg/mL (≈ 0.0381 µM), the MIC (Neisseria gonorrhoeae subspecies kochii 1, Replicate 1) was 0.032 µg/mL (≈ 0.0761 µM) and the MIC (Neisseria gonorrhoeae subspecies kochii 1, Replicate 2) was 0.016 µg/mL (≈ 0.0381 µM). It also gave an MIC (Neisseria gonorrhoeae subspecies kochii 1, Replicate 3) of 0.016 µg/mL (≈ 0.0381 µM), an MIC (Neisseria gonorrhoeae subspecies kochii 2, Consensus) of 0.008 µg/mL (≈ 0.019 µM) and an MIC (Neisseria gonorrhoeae subspecies kochii 2, Replicate 1) of 0.008 µg/mL (≈ 0.019 µM). It also gave an MIC (Neisseria gonorrhoeae subspecies kochii 2, Replicate 2) of 0.008 µg/mL (≈ 0.019 µM), an MIC (Neisseria gonorrhoeae subspecies kochii 2, Replicate 3) of 0.008 µg/mL (≈ 0.019 µM) and an MIC (Neisseria gonorrhoeae subspecies kochii 3, Consensus) of 0.008 µg/mL (≈ 0.019 µM). It also gave an MIC (Neisseria gonorrhoeae subspecies kochii 3, Replicate 1) of 0.008 µg/mL (≈ 0.019 µM), an MIC (Neisseria gonorrhoeae subspecies kochii 3, Replicate 2) of 0.008 µg/mL (≈ 0.019 µM) and an MIC (Neisseria gonorrhoeae subspecies kochii 3, Replicate 3) of 0.008 µg/mL (≈ 0.019 µM). For the same compound, the MIC (Neisseria lactamica 1, Consensus) was 0.032 µg/mL (≈ 0.0761 µM), the MIC (Neisseria lactamica 1, Replicate 1) was 0.032 µg/mL (≈ 0.0761 µM) and the MIC (Neisseria lactamica 1, Replicate 2) was 0.064 µg/mL (≈ 0.152 µM).
